Measured values as given in the NIST ThermoML archive (doi:10.1016/j.jct.2017.01.016).

Assays:
[1] = 101 kPa, Liquid; for viscosity: Capillary tube (Ostwald / Ubbelohde) method; for speed of sound: Frequency=3 MHz, Linear variable-path acoustic interferometer
[2] = xn = mol fraction of the nth substance listed; details: 101 kPa, Liquid, x1 = 1; for viscosity: Capillary tube (Ostwald / Ubbelohde) method; for speed of sound: Frequency=3 MHz, Linear variable-path acoustic interferometer

Cc1ccccc1C [1,2-dimethylbenzene]
[1]
Details | speed of sound [m/s] | viscosity [mPa·s]
293.15 K | 1367.7 | 0.8066
298.15 K | 1347.5 | 0.7576
303.15 K | 1329.4 | 0.7132
308.15 K | 1313.3 | 0.669
313.15 K | 1298.5 | 0.6315
318.15 K | 1285.2 | 0.5972

Cc1cc(C)cc(C)c1 [1,3,5-trimethylbenzene]
[1]
Details | speed of sound [m/s] | viscosity [mPa·s]
293.15 K | 1360.4 | 0.7056
298.15 K | 1339.8 | 0.6592
303.15 K | 1319.6 | 0.6188
308.15 K | 1300.2 | 0.5792
313.15 K | 1280.4 | 0.5422
318.15 K | 1263 | 0.5066

Cc1cccc(C)c1 [1,3-dimethylbenzene]
[1]
Details | speed of sound [m/s] | viscosity [mPa·s]
293.15 K | 1346.7 | 0.6184
298.15 K | 1323.6 | 0.584
303.15 K | 1302.4 | 0.5517
308.15 K | 1282.3 | 0.5229
313.15 K | 1262.3 | 0.4938
318.15 K | 1243 | 0.468

Cc1ccc(C)cc1 [1,4-dimethylbenzene]
[1]
Details | speed of sound [m/s] | viscosity [mPa·s]
293.15 K | 1328.4 | 0.6505
298.15 K | 1307.4 | 0.6115
303.15 K | 1287.3 | 0.5766
308.15 K | 1267.6 | 0.544
313.15 K | 1248.3 | 0.5132
318.15 K | 1229.8 | 0.4862

C1COCCO1 [1,4-dioxane]
[1]
Details | speed of sound [m/s] | viscosity [mPa·s]
293.15 K | 1367.2 | 1.306
298.15 K | 1344.7 | 1.195
303.15 K | 1323.1 | 1.096
308.15 K | 1301.2 | 1.014
313.15 K | 1279.7 | 0.945
318.15 K | 1258.6 | 0.884

C1COCCO1 [1,4-dioxane] + Cc1cc(C)cc(C)c1
[2]
Details | speed of sound [m/s] | viscosity [mPa·s]
293.15 K | 1367.2 | 1.306
298.15 K | 1344.7 | 1.195
303.15 K | 1323.1 | 1.096
308.15 K | 1301.2 | 1.014
313.15 K | 1279.7 | 0.945
318.15 K | 1258.6 | 0.884
